Test results from US20260209152A1, “Substituted Hydroxystilbene Compounds and Derivatives, Synthesis and Uses Thereof” (Kynan Duke IP, LLC, priority 2019, published 2026).
pIC50: −log10 of the molar value. “Also recorded” adds a separate entry of the source. Where two headings read alike, the source gives them in different places. Blank lines part the entries; values can stand above or below the molecule they belong to.

Columns and labels:
Bladder RT-112 = assay: CellTiter Glo cell viability assay; type: cell-based, human; conditions: Homo sapiens
Protocol: (§1) 1.7*10^3 cells/well were seeded in quadruplicates in 96-well plate after plating. Drugs were added at 5 μM and 2-fold dilutions over 18 concentrations (0.000038146-5 M concentration range) to generate a dose-response curve. Cell growth was assessed on day 1, 3 and 5 after drug treatments using the CellTiter Glo Luminescence Cell Viability Assay (Promega) according to manufacturer's protocol. Thermo Scientific Varioskan LUX Multimode Microplate instrument was used for plate reading. Data are expressed as mean luminescence (arbitrary units) ±S.D.
(§2) Cell Viability Assays were employed to determine the concentration of Compound 1 (KYN-001) and analogues where the response is reduced by half. For each treatment of cancer cells, 1, 2, 5, 10 and 20 μM solutions of compounds were applied. GraphPad Prism 7 software was used to fit dose response curves. Relative Luminescence Units were plotted against the log values of the doses used and the nonlinear regression model was used for data analysis.
(§3) The protocol for cell proliferation was optimized for Compound 8 (KYN-119) to enable a more accurate assessment of its low IC50 value. In this protocol, 18 dosages (2 fold dilutions ranging from 0.000038146 to 5 μM) were applied to cells seeded in 96-well plates, and Luminescence was measured after 1, 3 and 5 days upon treatments.

Kidney ACHN = assay: CellTiter Glo cell viability assay; type: cell-based, human; conditions: Homo sapiens, ACHN, read-out: IC50
Protocol: as §1, §2, §3

[1] = tested on: Cancer cells including pancreatic, bladder, kidney, colon, breast, lung, liver and osteosarcomas; assay: CellTiter Glo cell viability assay, panel of cancer cell lines; type: cell-based, human; conditions: for Cancer cell viability inhibition, statement in words: SAR discussion based on IC50 values in Tables 1 to 5, compared with 1 [KYN-001]; for Fold reduction in cancer cell viability inhibition vs 1 [KYN-001]: cell lines tested
Protocol: Compounds 1 to 15 were evaluated and their effect on cancer growth examined in cell viability assays on multiple cancer types (Tables 1 to 5). Cancer cells including pancreatic, bladder, kidney, colon, breast, lung, liver and osteosarcomas obtained from ATCC (American Type Culture Collection) were authenticated before use by Short Tandem Repeat genomic analysis (Reid Y, Storts D, Riss T and Minor L. Authentication of Human Cell Lines by STR DNA Profiling Analysis. 2013 May 1. In: Markossian S, Sittampalam G S, Grossman A, et al., editors. Assay Guidance Manual. Bethesda (MD): Eli Lilly & Company and the National Center for Advancing Translational Sciences; 2004.). Experimental protocol for each cancer cell line was verified and optimized according to literature reports before use (Tables 1 to 3).
as §1, §2, §3

Kidney A-498 = assay: CellTiter Glo cell viability assay; type: cell-based, human
Protocol: as §1, with “Drugs were added at 5 μM and 2-fold dilutions over 18 concentrations (0.000038146-5 M concentration range) to generate a dose-response curve.” left out
as §2, with “For each treatment of cancer cells, 1, 2, 5, 10 and 20 μM solutions of compounds were applied.” left out
The protocol for cell proliferation was optimized for Compound 8 (KYN-119) to enable a more accurate assessment of its low IC50 value. […]

Pancreatic MIA PaCa-2 = assay: CellTiter Glo cell viability assay; type: cell-based, human
Protocol: as §1, §2, §3
Day 3 upon treatment of MIA PaCa_2 pancreatic cancer cells, 24 h after plating (11 dilutions), as assessed by CellTiter Glow Assay.

Pancreatic CAPAN-1 = assay: CellTiter Glo cell viability assay; type: cell-based, human; conditions: Homo sapiens, CAPAN-1, 72 h; Table 4: 3 Days of treatment; 18 2-fold dilutions 5-0.00003 μM; Average (1, 8) or single Exp A-D; read-out: IC50
Protocol: as §1, §2, §3

Lung NCI-H1299 = assay: CellTiter Glo cell viability assay; type: cell-based, human; conditions: Homo sapiens, NCI-H1299, 72 h
Protocol: as §1, §2, §3

Colon SW_480 = assay: CellTiter Glo cell viability assay; type: cell-based, human; conditions: Homo sapiens, SW480, 72 h; Day 3 upon drug treatment; 10 dosages 0.0001-20 μM; read-out: IC50
Kidney CRL-1611 = assay: CellTiter Glo cell viability assay; type: cell-based; conditions: Homo sapiens, 72 h; Day 3 upon drug treatment; 10 dosages 0.0001-20 μM; read-out: IC50
Protocol: as §1, §2, §3

Breast MDA-MB-231 = assay: CellTiter Glo cell viability assay; type: cell-based, human; conditions: Homo sapiens, read-out: IC50
Protocol: as §1, §2, §3

Colon HCT_116 = assay: CellTiter Glo cell viability assay; type: cell-based, human; conditions: Homo sapiens, HCT-116, 120 h; Day 5 upon drug treatment; 10 dosages 0.0001-20 μM (Compound 8: 18 dosages 0.000038146 to 5 μM); read-out: IC50
Protocol: as §1, §2, §3

Bladder 5637 = assay: CellTiter Glo cell viability assay; type: cell-based, human; conditions: Homo sapiens, 120 h; Day 5 upon drug treatment; 10 dosages 0.0001-20 μM (Compound 8: 18 dosages 0.000038146 to 5 μM); read-out: IC50
Protocol: as §1, §2, §3

[2] = RT-112, 72 h, Table 4: 3 Days of treatment, 18 2-fold dilutions 5-0.00003 μM, Average (1, 8) or single Exp A-D, read-out: IC50
[3] = 72 h, Table 4: 3 Days of treatment, 18 2-fold dilutions 5-0.00003 μM, Average (1, 8) or single Exp A-D
[4] = Homo sapiens, A498, 72 h, Table 4: 3 Days of treatment, 18 2-fold dilutions 5-0.00003 μM, Average (1, 8) or single Exp A-D, read-out: IC50
[5] = Homo sapiens, A498, Table 5A: 11 dilutions 3-0.00001 μM, single experiments Exp E-K, read-out: IC50
[6] = Table 5A: 11 dilutions 3-0.00001 μM, single experiments Exp E-K, read-out: IC50
[7] = Homo sapiens, MIA PaCa-2, Table 5A: 11 dilutions 3-0.00001 μM, single experiments Exp E-K, read-out: IC50
[8] = RT-112, 72 h, Day 3 upon drug treatment, 10 dosages 0.0001-20 μM, read-out: IC50
[9] = Homo sapiens, MIA PaCa-2, 72 h, Day 3 upon drug treatment, 10 dosages 0.0001-20 μM, read-out: IC50
[10] = MDA-MB-231, 72 h, Day 3 upon drug treatment, 10 dosages 0.0001-20 μM
[11] = RT-112, 120 h, Day 5 upon drug treatment, 10 dosages 0.0001-20 μM (Compound 8: 18 dosages 0.000038146 to 5 μM), read-out: IC50
[12] = 120 h, Day 5 upon drug treatment, 10 dosages 0.0001-20 μM (Compound 8: 18 dosages 0.000038146 to 5 μM)
[13] = MDA-MB-231, 120 h, Day 5 upon drug treatment, 10 dosages 0.0001-20 μM (Compound 8: 18 dosages 0.000038146 to 5 μM)
[14] = Homo sapiens, MIA PaCa-2, 120 h, Day 5 upon drug treatment, 10 dosages 0.0001-20 μM (Compound 8: 18 dosages 0.000038146 to 5 μM), read-out: IC50

Compound: CCCOc1cc(O)cc(/C=C/c2ccc(O)c(OC)c2)c1CC=C(C)C [Compound 9, (E)-3-(4-hydroxy-3-methoxystyryl)-4-(3-methylbut-2-en-1-yl)-5-propoxyphenol]
pIC50 (Bladder RT-112; [2]): 7.66 | pIC50 (Kidney ACHN; [3]): 6.22 | Cancer cell viability inhibition, statement in words [1]: comparable or weaker biological activity | pIC50 (Kidney A-498; [4]): 7.72 | pIC50 (Kidney A-498; [5]): 6.00 to 7.00 | pIC50 (Kidney A-498; [6]): 6.83 | pIC50 (Pancreatic MIA PaCa-2; [7]): 6.00 to 7.00 | pIC50 (Pancreatic MIA PaCa-2; [6]): 6.94

Compound: COc1cc(C=Cc2cc(O)cc(OC(C)C)c2CC=C(C)C)ccc1O [Compound 10, 3-(4-Hydroxy-3-methoxystyryl)-5-isopropoxy-4-(3-methylbut-2-en-1-yl)phenol]
pIC50 (Bladder RT-112; [2]): 7.59 | pIC50 (Kidney ACHN; [3]): 7.39 | pIC50 (Pancreatic CAPAN-1): 5.65 | pIC50 (Kidney A-498; [4]): 7.43 | pIC50 (Kidney A-498; [5]): 6.00 to 7.00 | pIC50 (Kidney A-498; [6]): 6.90

Compound: COc1cc(/C=C/c2cc(O)cc(OC(F)(F)F)c2CC=C(C)C)ccc1O [Compound 11, (E)-3-(4-hydroxy-3-methoxystyryl)-4-(3-methylbut-2-en-1-yl)-5-(trifluoromethoxy)phenol]
pIC50 (Bladder RT-112; [2]): 7.41 | pIC50 (Lung NCI-H1299; Table 4: 3 Days of treatment, 18 2-fold dilutions 5-0.00003 μM, Average (1, 8) or single Exp A-D, read-out: IC50): 6.71 | pIC50 (Kidney A-498; [4]): 6.98 | pIC50 (Pancreatic MIA PaCa-2; Homo sapiens, MIA PaCa-2, 72 h, Table 4: 3 Days of treatment, 18 2-fold dilutions 5-0.00003 μM, Average (1, 8) or single Exp A-D, read-out: IC50): 6.18

Compound: CCOc1cc(C=Cc2cc(O)cc(OC)c2CC=C(C)C)ccc1O [Compound 12, 3-(3-Ethoxy-4-hydroxystyryl)-5-methoxy-4-(3-methylbut-2-en-1-yl)phenol]
pIC50 (Bladder RT-112; RT-112, 72 h): 6.46 | pIC50 (Lung NCI-H1299): 6.08 | Fold reduction in cancer cell viability inhibition vs 1 [KYN-001] [1]: approximately 10 | pIC50 (Kidney A-498; Homo sapiens, A498, 72 h, Table 4: 3 Days of treatment, 18 2-fold dilutions 5-0.00003 μM, Average (1, 8) or single Exp A-D): 6.09 | pIC50 (Pancreatic MIA PaCa-2; Homo sapiens, MIA PaCa-2): 5.96

Compound: CCc1cc(/C=C/c2cc(O)cc(OC)c2CC=C(C)C)ccc1O [Compound 13, (E)-3-(3-Ethyl-4-hydroxystyryl)-5-methoxy-4-(3-methylbut-2-en-1-yl)phenol]
pIC50 (Bladder RT-112; [8]): 6.02 | pIC50 (Colon SW_480): 4.58 | pIC50 (Kidney CRL-1611): 5.67 | pIC50 (Pancreatic MIA PaCa-2; [9]): 5.52

Compound: COc1cc(O)cc(/C=C/c2ccc(O)c(SC)c2)c1CC=C(C)C [Compound 14, (E)-3-(4-Hydroxy-3-(methylthio)styryl)-5-methoxy-4-(3-methylbut-2-en-1-yl)phenol]
pIC50 (Bladder RT-112; [8]): 5.88 | pIC50 (Breast MDA-MB-231; [10]): ~4.97 | pIC50 (Kidney CRL-1611): 5.53 | pIC50 (Pancreatic MIA PaCa-2; [9]): 5.46

Continued, in another order:

pIC50 (Colon HCT_116): 6.45 | pIC50 (Kidney ACHN; [12]): 6.55 | pIC50 (Breast MDA-MB-231; [13]): 6.61 | pIC50 (Pancreatic MIA PaCa-2; [14]): 6.74 | pIC50 (Pancreatic MIA PaCa-2; [7]): 5.94
Compound: COc1cc(/C=C/c2cc(O)cc(OC)c2CC=C(C)C)cc(C)c1O [Compound 17, (E)-4-(5-Hydroxy-3-methoxy-2-(3-methylbut-2-en-1-yl)styryl)-2-methoxy-6-methylphenol]
pIC50 (Bladder RT-112; [11]): 6.94 | pIC50 (Bladder 5637): 6.98 | Cancer cell viability inhibition, statement in words [1]: marginally less potent than the parent compound 1 | Fold reduction in cancer cell viability inhibition vs 1 [KYN-001] [1]: approximately 3 | pIC50 (Kidney A-498; [5]): 6.00 to 7.00 | pIC50 (Kidney A-498; [6]): 6.85

pIC50 (Breast MDA-MB-231; [13]): 5.21
Compound: COc1cc(/C=C/c2cc(O)cc(OC)c2CC=C(C)C)ccc1[N+](=O)[O-] [Compound 22, (E)-3-Methoxy-5-(3-methoxy-4-nitrostyryl)-4-(3-methylbut-2-en-1-yl)phenol]
Cancer cell viability inhibition, statement in words [1]: Loss of the anti-proliferative effect

pIC50 (Colon HCT_116): 6.32 | pIC50 (Kidney ACHN; [12]): 6.59 | pIC50 (Breast MDA-MB-231; [13]): 6.86 | pIC50 (Pancreatic MIA PaCa-2; [14]): 6.74
Compound: COc1cc(/C=C/c2cc(O)cc(OC)c2CC=C(C)C)ccc1N [Compound 23, (E)-3-(4-Amino-3-methoxystyryl)-5-methoxy-4-(3-methylbut-2-en-1-yl)phenol]
pIC50 (Bladder RT-112; [11]): 7.17 | pIC50 (Bladder 5637): 7.19 | Cancer cell viability inhibition, statement in words [1]: marginally less potent than the parent compound 1; also recorded: activity similar to but overall reduced

pIC50 (Colon HCT_116): 6.20 | pIC50 (Kidney ACHN; [12]): 6.55 | pIC50 (Breast MDA-MB-231; [13]): 6.81 | pIC50 (Pancreatic MIA PaCa-2; [14]): 6.73
Compound: COc1cc(/C=C/c2cc(O)cc(OC)c2CC=C(C)C)ccc1NC(C)=O [Compound 29, (E)-N-(4-(5-hydroxy-3-methoxy-2-(3-methylbut-2-en-1-yl)styryl)-2-methoxyphenyl)acetamide]
pIC50 (Bladder RT-112; [11]): 7.12 | pIC50 (Bladder 5637): 7.17 | Cancer cell viability inhibition, statement in words [1]: marginally less potent than the parent compound 1

pIC50 (Colon HCT_116): 6.17 | pIC50 (Kidney ACHN; [12]): 5.55 | pIC50 (Breast MDA-MB-231; [13]): 6.77 | pIC50 (Pancreatic MIA PaCa-2; [14]): 7.01 | pIC50 (Pancreatic MIA PaCa-2; [7]): 5.69
Compound: COC(=O)CNc1ccc(/C=C/c2cc(O)cc(OC)c2CC=C(C)C)cc1OC [Compound 33, Methyl (E)-(4-(5-hydroxy-3-methoxy-2-(3-methylbut-2-en-1-yl)styryl)-2-methoxyphenyl)glycinate]
pIC50 (Bladder RT-112; [11]): 7.02 | pIC50 (Bladder 5637): 7.07 | Cancer cell viability inhibition, statement in words [1]: marginally less potent than the parent compound 1

pIC50 (Breast MDA-MB-231; [10]): ~4.99 | pIC50 (Pancreatic MIA PaCa-2; [9]): 4.69
Compound: COc1cc(/C=C/c2cc(O)cc(OC)c2Br)ccc1O [Compound 45, (E)-4-Bromo-3-(4-hydroxy-3-methoxystyryl)-5-methoxyphenol]
pIC50 (Colon SW_480): 4.97
